According to patent US20260356887A1, “NOVEL MYD88 INHIBITOR FOR TREATMENT OF AUTOIMMUNE DISEASES AND USES THEREOF” (S&K THERAPEUTICS, priority 2023, published 2026):
Where a name gives a salt, the structure may show the parent alone. Each block holds one molecule with its values, some of them ahead of it. No end group written: not given here.

Tests used:
[1] = test system: C57BL/6 mice with IMQ-induced psoriasis; test: Imiquimod-induced psoriasis model; assay type: in vivo, mouse; conditions: MyDIP2-4 5 and 20 mg/kg i.p., dexamethasone 10 mg/kg oral
Experimental: Six-week-old female C57BL/6 mice (Orient Bio, Seongnam, Korea) were housed under specific pathogen-free conditions on a standard laboratory ad libitum diet. Animal experiments related to psoriasis were approved by the Animal Care and Use Committee [NDIC Approval Nos. 12022111 (EAE) and I2022053-3 (psoriasis), Hwaseong, Korea] and were performed in accordance with relevant guidelines and regulations.
Disease was induced by topical application of Aldara cream (Donga ST; Seoul, Korea) containing 5% imiquimod onto the back of six-week-old female C57BL/6 mice for 5 consecutive days. MyDIP2-4 was administered intraperitoneally at doses of 5 and 20 mg/kg. As a positive control group, dexamethasone (Sigma-Aldrich; cat. No. D1756) was administered orally at a dose of 10 mg/kg. Five days later, mice were sacrificed under respiratory anesthesia, and skin lesions were collected for histological examination.
An objective scoring system to quantify the severity of back skin inflammation was established based on the PASI scoring system, a widely used clinical tool to assess psoriasis severity. On a scale from 0 to 4, factors such as erythema, scaling, wrinkles, and thickness were individually assessed as follows: 0, none; 1, weak; 2, moderate; 3, significant; and 4, very evident. Under the careful supervision of experienced investigators, erythema, scaling, and thickness were graded. The cumulative score (erythema+scaling+thickness score, scale 0-12) indicates the severity of psoriasis symptoms.
Skin tissue was removed, the upper layer was fixed in neutral formalin, and H&E staining and IHC were performed. Epidermal thickness of skin tissue was measured using H&E staining. IL-17, KI-67, and IL-23 levels were measured using IHC with the aid of antibodies against IL-17A (Thermo Fisher Scientific; cat. No. PA5-79470), KI-67 (Cell Signaling; cat. No. 12202), and IL-23 (Novus Biologicals; cat. No. NBP1-76697).
To establish an IMQ-induced psoriasis model, Aldara cream containing 5% imiquimod was topically applied onto the back of six-week-old female C57BL/6 mice for 5 consecutive days. […]

[2] = test system: C57BL/6 mice with MOG35-55-induced EAE; test: MOG35-55-induced experimental autoimmune encephalomyelitis (EAE) model; assay type: in vivo, mouse
Experimental: Eight-week-old female C57BL/6 (B6) mice (Orient Bio, Korea) were maintained in a specific pathogen-free environment on a standard laboratory ad libitum diet. All experiments were approved by the Animal Care and Use Committee [NDIC Approval Nos. 12022111 (EAE) and I2022053-3 (psoriasis), Hwaseong, Korea] and were performed in accordance with relevant guidelines and regulations.
EAE was induced in mice using the Hooke Kit (MOG35-55/complete Freund's adjuvant (CFA) Emulsion PTX (Hooke Laboratories, LLC, Lawrence, MA, USA)) according to the manufacturer's protocol. Mice were immunized subcutaneously with myelin oligodendrocyte glycoprotein emulsified in complete Freund's adjuvant. […]
Mice were weighed and examined daily, and EAE symptoms were assessed using the following standard scoring system: 0-6: 0, no symptoms; 1, limp tail; 2, limp tail and hind limb paralysis; 3, paralysis of one or more hind limbs; 4, complete hind limb and hindquarter paralysis; 5, hindquarter paralysis with forelimb paralysis; and 6, death. […]
To investigate the therapeutic potential of MyDIP2-4 on EAE progression, mice were immunized with MOG35-55 peptide in CFA and pertussis toxin was administered once on day 0 and again 24 hours later. […] Mouse body weight and EAE clinical scores were recorded three times a week: days 0, 2, 5, 7, 9, 12, 14, 16, 19, and 21.

RAW 264.7 cells = test: Macrophage viability (MTT assay) in RAW 264.7 cells; assay type: cell-based; conditions: mouse macrophages; 50 μM; 24 hours
Experimental: THP-1 and RAW 264.7 cells (ATCC, Manassas, VA, USA) were cultured at 37 °C and 5% CO2 in RPMI (Roswell Park Memorial Institute) medium and Dulbecco's modified Eagle medium supplemented with fetal bovine serum (FBS, 10%), 4 mM L-glutamine, 1 mM sodium pyruvate, penicillin (100 units/ml), and streptomycin (0.1 mg/ml). THP-1 cells, which are monocytes, were differentiated into macrophages by treatment with 80 nM phorbol 12-myristate 13-acetate (PMA, Sigma-Aldrich) for 24 hours. The cells were cultured at 37 °C and 5% CO2 in a humidified incubator (Thermo Fisher Scientific, Inc.), and the medium was replaced every 18 hours.
To evaluate the cytotoxic effect of the peptide on mouse and human macrophages, RAW 264.7 cells and THP-1-derived macrophages were seeded at respective densities of 5×10^4/well and 2×10^5/well in 96-well plates (BD Biosciences, San Jose, CA, USA) followed by culture overnight at 37 °C in a humidified incubator. After treating the cells with the peptide at the corresponding concentration for 24 hours, viability was measured using 3-(4,5-dimethylthiazol-2-yl)-2,5-diphenyltetrazolium bromide (MTT) assay (Sigma-Aldrich). […] Relative cell viability was calculated by measuring absorbance at 570 nm, and the untreated control group was designated as having a relative viability of 100%. […]

human MyD88 protein = human MyD88 protein (Homo sapiens, UniProt Q99836); test: Surface plasmon resonance (SPR) analysis of MyDIP2-4 and MyD88; assay type: binding; conditions: MyD88 immobilized on NTA chip, MyDIP2-4 0.8 to 12.8 μM in PBS
Experimental: The biophysical interactions between MyDIP2-4 and MyD88 were evaluated using SPR analysis in an iMSPR-mini system (icluebio, Seongnam, Korea). MyD88 protein was immobilized on the surface of a nitrilotriacetic acid (NTA) sensor chip at a concentration of 50 μg/ml. MyDIP2-4 was injected into the MyD88-binding chip at various concentrations ranging from 0.8 to 12.8 μM (dissolved in PBS) at a flow rate of 50 μl/min. PBS was used as a running buffer and injected into the empty channel as a reference. Experiments were performed twice using freshly prepared reagents, and data were analyzed using TraceDrawer software (Ridgeview Instruments; Uppsala, Sweden).
SPR technology was used to evaluate the biophysical interaction between the MyDIP2-4 peptide and the MyD88 protein. SPR analysis involves immobilizing the MyD88 protein on the surface of a sensor chip and then flowing the MyDIP2-4 peptide at various concentrations.

human MyD88 protein, sequence (Q99836 whole entry): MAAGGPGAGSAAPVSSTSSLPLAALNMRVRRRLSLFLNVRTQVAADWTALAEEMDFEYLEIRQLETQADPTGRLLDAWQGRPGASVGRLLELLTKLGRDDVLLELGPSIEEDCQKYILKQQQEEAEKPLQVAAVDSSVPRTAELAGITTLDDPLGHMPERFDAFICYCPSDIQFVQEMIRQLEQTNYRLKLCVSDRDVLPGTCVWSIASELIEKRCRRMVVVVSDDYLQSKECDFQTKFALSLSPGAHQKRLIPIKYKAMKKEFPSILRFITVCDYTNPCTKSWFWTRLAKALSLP

Molecule: C[C@@H]1C[C@H]2[C@@H]3CCC4=CC(=O)C=C[C@]4(C)[C@@]3(F)[C@@H](O)C[C@]2(C)[C@@]1(O)C(=O)CO [dexamethasone]
- epidermal thickness ([1]; H&E): significantly reduced
- IL-17 expression in skin tissue ([1]; IHC): did not inhibit
- KI-67 in skin tissue (KI-67-positive cells) ([1]; IHC): significant decrease

Molecule: COC(=O)/C=C/C(=O)OC [DMF, dimethyl fumarate]
- EAE clinical score compared to MyDIP2-4 ([2]; day 21, DMF 100 mg/kg vs MyDIP2-4 40 mg/kg): reduced clinical scores

- kon (human MyD88 protein; read-out: rate constant for association (Ka)): 3.7 M⁻¹ s⁻¹
- koff (human MyD88 protein; read-out: rate constant for dissociation (Kd)): 1.37e-07 s⁻¹
Molecule: RQIKIWFQNRRMKWKKWLWFILFKKLSLP [MyDIP2-4]
- cytotoxicity (MTT) (RAW 264.7 cells): not cytotoxic
- body weight compared to DMF-treated mice (EAE) ([2]; MyDIP2-4 40 mg/kg i.p. once daily, DMF 100 mg/kg): no difference in body weight
